US8273780B2, “Polycyclic antagonists of lysophosphatidic acid receptors” (Amira Pharmaceuticals, Inc., priority 2009, dated 2012)

Tests used:
[1] = target: T1, Human LPA1 (Homo sapiens, UniProt Q92633); experiment: LPA1 calcium flux assay; assay type: cell-based; settings: CHO cells expressing human LPA1, 10 nM LPA; read-out: HLPA1 Ca Flux IC50
T1 construct: the full-length cDNA for human LPA1 was obtained by PCR of the reverse transcription reaction; expressed in transfected cells
Experimental: A 1.1 kb cDNA encoding the human LPA1 receptor was cloned from human lung. Human lung RNA (Clontech Laboratories, Inc. USA) was reverse transcribed using the RETROscript kit (Ambion, Inc.) and the full-length cDNA for human LPA1 was obtained by PCR of the reverse transcription reaction. The nucleotide sequence of the cloned human LPA1 was determined by sequencing and confirmed to be identical to the published human LPA1 sequence (An et al. Biochem. Biophys. Res. Commun. 231:619 (1997). The cDNA was cloned into the pcDNA5/FRT expression plasmid and transfected in CHO cells using lipofectamine 2000 (Invitrogen Corp., USA). Clones stably expressing human LPA1 were selected using hygromycin and identified as cells that show Ca-influx in response to LPA.
(§1) Human LPA1 or LPA3 expressing CHO cells are seeded at 20,000-45,000 cells per well in a 96-well poly-D-lysine coated plate one or two days before the assay. Prior to the assay, the cells are washed once with PBS and then cultured in serum-free media overnight. On the day of the assay, a calcium indicator dye (Calcium 4, Molecular Devices) in assay buffer (HBSS with Ca^2+and Mg^2+ and containing 20 mM Hepes and 0.3% fatty-acid free human serum albumin) is added to each well and incubation continued for 1 hour at 37° C. 10 μl of test compounds in 2.5% DMSO are added to the cells and incubation continued at room temperature for 30 minutes. Cells are the stimulated by the addition of 10 nM LPA and intracellular Ca^2+ measured using the Flexstation 3 (Molecular Devices). IC50s are determined using Graphpad prism analysis of drug titration curves.

[2] = target: T2, Human LPA3 (Homo sapiens, UniProt Q9UBY5); experiment: LPA3 calcium flux assay; assay type: cell-based; settings: CHO cells expressing human LPA3, 10 nM LPA; read-out: HLPA3 Ca Flux IC50
T2 construct: The full-length cDNA fragment for human LPA3 was obtained by PCR from the vector; expressed in transfected cells; cDNA from the Missouri S&T cDNA Resource Center
T2 sequence (Q9UBY5 1-353): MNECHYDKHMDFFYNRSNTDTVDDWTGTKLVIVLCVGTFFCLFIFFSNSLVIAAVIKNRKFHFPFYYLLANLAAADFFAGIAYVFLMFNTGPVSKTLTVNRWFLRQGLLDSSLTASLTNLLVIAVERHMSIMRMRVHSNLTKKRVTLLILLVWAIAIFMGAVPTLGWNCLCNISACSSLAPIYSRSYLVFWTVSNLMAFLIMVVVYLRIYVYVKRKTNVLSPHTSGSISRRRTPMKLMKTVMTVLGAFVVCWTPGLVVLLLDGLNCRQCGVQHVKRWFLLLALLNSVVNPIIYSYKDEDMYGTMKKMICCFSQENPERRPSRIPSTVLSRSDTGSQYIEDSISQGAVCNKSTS
Experimental: A vector containing the human LPA3 receptor cDNA was obtained from the Missouri S&T cDNA Resource Center (www.cdna.org). The full-length cDNA fragment for human LPA3 was obtained by PCR from the vector. The nucleotide sequence of the cloned human LPA3 was determined by sequencing and confirmed to be identical to the published human LPA3 sequence (NCBI accession number NM_012152). The cDNA was cloned into the pcDNA5/FRT expression plasmid and transfected in CHO cells using lipofectamine 2000 (Invitrogen Corp., USA). Clones stably expressing human LPA3 were selected using hygromycin and identified as cells that show Ca-influx in response to LPA.
as §1

[3] = system: human A2058 melanoma cells; experiment: LPA1 chemotaxis assay; assay type: cell-based; settings: 100 nM LPA, read-out: inhibition of LPA-driven chemotaxis IC50
Experimental: Chemotaxis of the A2058 human melanoma cells was measured using the Neuroprobe ChemoTx® System plates (8 μM pore size, 5.7 mm diameter sites). The filter sites were coated with 0.001% fibronectin (Sigma) in 20 mM Hepes, pH 7.4 and allowed to dry. A2058 cells were serum-starved for 24 hours, then harvested with Cell Stripper and resuspended in DMEM containing 0.1% fatty-acid-free bovine serum albumin (BSA) to a concentration of 1×10^6/ml. Cells were mixed with an equal volume of test compound (2×) in DMEM containing 0.1% fatty-acid-free BSA and incubated at 37° C. for 15 minutes. LPA (100 nM in DMEM containing 0.1% fatty-acid-free BSA) or vehicle was added to each well of the lower chamber and 50 μl of the cell suspension/test compound mix was applied to the upper portion of the ChemoTx plate. Plates were incubated at 37° C. for three hours and then the cells removed from the upper portion by rinsing with PBS and scraping. The filter was dried then stained with HEMA 3 Staining System (Fisher Scientific). The absorbance of the filter was read at 590 nm and IC50s were determined using Symyx Assay Explorer.

[4] = system: pancreatic cancer cell lines; settings: in response to LPA and peritoneal fluid (ascites) from pancreatic cancer patients; cited from earlier work
[5] = system: highly peritoneal metastatic pancreatic cancer cell line; settings: LPA-induced and ascites-induced; cited from earlier work
[6] = system: UUO mice; settings: in LPA1 (−/−) mice renal fibrosis was significantly attenuated; cited from earlier work

T1 sequence (Q92633 whole entry): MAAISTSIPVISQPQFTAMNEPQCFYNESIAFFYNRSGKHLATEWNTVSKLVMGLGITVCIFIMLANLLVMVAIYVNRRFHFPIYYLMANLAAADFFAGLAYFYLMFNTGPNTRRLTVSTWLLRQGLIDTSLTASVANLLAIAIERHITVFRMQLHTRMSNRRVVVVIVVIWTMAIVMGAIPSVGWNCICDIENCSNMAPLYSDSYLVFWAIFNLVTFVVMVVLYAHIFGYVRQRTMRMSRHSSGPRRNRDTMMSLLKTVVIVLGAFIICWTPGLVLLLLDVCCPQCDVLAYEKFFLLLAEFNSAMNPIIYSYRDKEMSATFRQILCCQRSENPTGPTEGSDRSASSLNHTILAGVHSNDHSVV

IC50 [1] [nM]	IC50 [2] [nM]	IC50 [3] [nM]	SMILES	in vitro migration [4]	invasion activity [5]	development of renal fibrosis [6]
< 300	1000 to 10000	< 100	Cc1noc(-c2ccc(-c3ccc(C4(c5nnn[nH]5)CC4)cc3)cc2)c1NC(=O)O[C@H](C)c1ccccc1 [Compound 39, (3-Methyl-5-{4′-[1-(1H-tetrazol-5-yl)-cyclopropyl]-biphenyl-4-yl}-isoxazol-4-yl)-carbamic acid (R)-1-phenyl-ethyl ester]	–	–	–
< 300	300 to 1000	< 100	CCc1noc(-c2ccc(-c3ccc(C4(C(=O)O)CC4)cc3)cc2)c1NC(=O)O[C@H](C)c1ccccc1 [Compound 29, 1-{4′-[3-Ethyl-4-((R)-1-phenyl-ethoxycarbonylamino)-isoxazol-5-yl]-biphenyl-4-yl}-cyclopropanecarboxylic acid]	–	–	–
< 300	1000 to 10000	< 100	Cc1ccc([C@@H](C)OC(=O)Nc2c(C)noc2-c2ccc(-c3ccc(C4(C(=O)O)CC4)cc3)cc2)cc1 [Compound 16, 1-{4′-[3-Methyl-4-((R)-1-p-tolyl-ethoxycarbonylamino)-isoxazol-5-yl]-biphenyl-4-yl}-cyclopropanecarboxylic acid]	–	–	–
< 300	300 to 1000	< 100	Cc1noc(-c2ccc(-c3ccc(C4(C(=O)O)CC4)cc3)cc2)c1NC(=O)O[C@H](C)c1ccccc1Cl [Compound 8, 1-(4′-{4-[(R)-1-(2-Chloro-phenyl)-ethoxycarbonylamino]-3-methyl-isoxazol-5-yl}-biphenyl-4-yl)-cyclopropanecarboxylic acid]	–	–	–
< 300	300 to 1000	< 100	Cc1cccc([C@@H](C)OC(=O)Nc2c(C)noc2-c2ccc(-c3ccc(C4(C(=O)O)CC4)cc3)cc2)c1 [Compound 17, 1-{4′-[3-Methyl-4-((R)-1-m-tolyl-ethoxycarbonylamino)-isoxazol-5-yl]-biphenyl-4-yl}-cyclopropanecarboxylic acid]	–	–	–

Continued, molecule first:

SMILES	IC50 [1] [nM]	IC50 [2] [nM]	IC50 [3] [nM]	in vitro migration [4]	invasion activity [5]	development of renal fibrosis [6]
Cc1noc(-c2ccc(-c3ccc(C4(C(=O)O)CC4)cc3)cc2)c1NC(=O)OCc1ccccc1 [Compound 4, 1-[4′-(4-Benzyloxycarbonylamino-3-methyl-isoxazol-5-yl)-biphenyl-4-yl]-cyclopropanecarboxylic acid]	< 300	> 10000	< 100	–	–	–
Cc1noc(-c2ccc(-c3ccc(C4(C(=O)O)CC4)cc3)cc2)c1NC(=O)O[C@H](C)c1ccccc1C#N [Compound 19, 1-(4′-{4-[(R)-1-(2-Cyano-phenyl)-ethoxycarbonylamino]-3-methyl-isoxazol-5-yl}-biphenyl-4-yl)-cyclopropanecarboxylic acid]	< 300	1000 to 10000	< 100	–	–	–
Cc1noc(-c2ccc(-c3ccc(C4(C(=O)O)CC4)cc3)cc2)c1NC(=O)OC(C)C1=C(Cl)CCCC1 (stereo not drawn) [Compound 21, 1-(4′-{4-[1-(2-Chloro-cyclohex-1-enyl)-ethoxycarbonylamino]-3-methyl-isoxazol-5-yl}-biphenyl-4-yl)-cyclopropanecarboxylic acid]	< 300	< 300	< 100	–	–	–
Cc1noc(-c2ccc(CSCCC(=O)O)cc2)c1NC(=O)OC(C)c1ccccc1Cl (stereo not drawn) [Ki16425]	–	–	–	effectively blocked	blocked	closely resembled the LPA1 (−/−) mice
